Tests used:
[1] = Fraction unbound in hepatocytes, Rapid Equilibrium Dialysis (RED) device; format: in vitro ADME; conditions: human, heat inactivated hepatocytes, RED device
Procedure: Fraction Unbound in Hepatocytes. The estimation of the fraction unbound in hepatocytes at equilibrium can be obtained using multiple techniques: heat inactivated hepatocytes (3); linear regression obtained using the logD7.4 (4); parameter estimation (1, 3, 5, 6) or as separate binding rate constants determined experimentally (7). […] The RED device works with low volumes across a medium chamber (500 µL, white) and incubation chamber containing the hepatocytes (300 µL, red), and as such has been reported to even out the non-specific binding (NSB) between the membrane and wells, thereby improving recovery (8). The free fraction in the incubation (fu.inc) is calculated as:
fu.inc= [medium chamber] Whiteincubation chamber(Red) . (Eq.S1)
The amount of non-specific binding (NSB) to the labware is important to understand the recovery from the RED device experiment to evaluate the reliability of fu.inc: […]

[2] = Semimechanistic PBPK model simulation in simulated healthy volunteers; set-up: species or system human; conditions: PBPK model value
Excerpt: Uptake is inhibited by the opposing drug in X 3 via the respective uptake concentration at half of the maximum uptake velocity (K m.up.X) shown as the inhibition constant (K I.up). Passive movement of drug into and out of the liver is through clearances P dif.X and P def.X, respectively. Both drugs are cleared through biliary excretion (CLbi.X) into the gallbladder (X 5), and into X 2 where they can be reabsorbed.
The micro‐rate constants for transporter‐mediated uptake and passive uptake were scaled to macro‐rate constants (see Table 2 ) and then empirically scaled up to the human body (83 kg, healthy adult; ^23 see Table 2 ).
The ODE PBPK model (see Figure 1 for schematic and Supplemental Material for the set of ODEs) was developed using desolve ^27 in R‐studio (v1.1.463, R‐Studio Inc., Boston, MA) running R‐project version 3.6.0 ^28 and was similar to that used for eltrombopag and rosuvastatin. ^5 All figures in this article were generated either within Inkscape (0.93, Inkscape.org, Boston, MA) or cowplot, ggplot2, ^29 , ^30 extrafont, ^31 and Cairo. ^32

[3] = Static R value for clinical TrDDI (FDA guidance); set-up: species or system human; conditions: eltrombopag victim, pitavastatin perpetrator; versus FDA cut‐offs
[4] = set-up: method as in earlier work; conditions: eltrombopag; minimum value of FDA draft guidance when plasma protein binding ≥ 0.99; cited from earlier work
[5] = cited from earlier work
[6] = cited from earlier work; remark: listed apart in the source
[7] = eltrombopag only, single 75 mg, plasma

With `CC1=NN(c2ccc(C)c(C)c2)C(=O)/C1=N\Nc1cccc(-c2cccc(C(=O)O)c2)c1O` [eltrombopag, Eltrombopag] the fraction unbound ([1]; overnight, pitavastatin 0.3, 10 and 100 nmol/ml, eltrombopag 30 nmol/ml, read-out: f u.inc, fraction unbound in the incubation) was 0.04, the recovery ([1]; read-out: analytical recovery) was 10% and the “CLmet.X, metabolic clearance” value ([2]; Eqs. 10 and 11) was 6.8 mL/min/liver. The “CLbi.X, biliary clearance” value ([2]; Eqs. 12 and 13) was 13 mL/min/liver, the “R value, static model” value [3] was “below the cut‐offs” and the “f u.pl, fraction unbound in the plasma set for static R value” [4] was 0.01. The “AUC0−∞ (literature)” value [5, 7] was 145 (101–208) h•µg/mL, the “tmax (h)” value [5, 7] was 2.5 (2–4) h and the Cmax ([5]; eltrombopag only, single 75 mg, plasma, mean (95% CI)) was 10.9 (8.7–13.6) µg/mL. For the same molecule, the “K a, absorption rate constant” value ([5]; eltrombopag, used for I in.max) was 0.0084 min⁻¹, the “F a F g, fraction absorbed multiplied by the intestinal availability” value ([5]; eltrombopag) was 0.5 and the parent in urine ([5]; eltrombopag) was 0 parent in urine [ ^25 ]. For the same molecule, the “V c.X, volume of the central compartment / volume of distribution” value ([5]; eltrombopag, plasma) was 2940 [ ^5 ] mL, the “binding of eltrombopag to plasma proteins” value [6] was 99.8% and the “f u.pl.E, eltrombopag fraction unbound in the plasma” value [6] was 0.002. The “blood:plasma ratio” value ([6]; eltrombopag) was 0.78.

From paper PMC7179958 (CPT: Pharmacometrics & Systems Pharmacology, 2020)
